For assay [1], the system named is phenylquinone writhing in mice. Description: Phenylquinone Writhing Test. It is filed as in vivo, female white mice. Particulars: Mus musculus, oral, observed from 30 minutes after dosing for 10 minutes. The method, then: Aqueous (0.10% phenyl-p-benzoquinone) phenylquinone was injected intraperitoneally at 24 minutes later using 0.20 ml per mouse.
Assay [2] relates to adjuvant-induced arthritis in rats. Description: Established Adjuvant-Induced Arthritis in Rats. It is filed as in vivo, Lewis (Wistar) male rats. Particulars: Rattus norvegicus; for ED50: oral once daily 7 days (days 14-20), decrease from control paw volume, day 21; for inhibition in vivo at 9 mg/kg: Table 3, dose 9 mg/kg.
[3] abbreviates: 168 h, Table 3, dose 25 mg/kg, oral once daily 7 days, read-out: Adjuvant Arthritis, percent reduction in paw volume at the indicated dose.
[4] abbreviates: 168 h, Table 3, dose 50 mg/kg, oral once daily 7 days, read-out: Adjuvant Arthritis, percent reduction in paw volume at the indicated dose.
The mark [5] stands for this setting: 168 h, oral once daily 7 days, read-out: Adjuvant Arthritis, percent reduction in paw volume at the indicated dose.
Where [6] appears, read: 168 h, Table 4, dose 25 mg/kg, oral once daily 7 days, read-out: Adjuvant Arthritis, percent reduction in paw volume at the indicated dose.

Read-outs that look alike come from different tables or passages of the source. Where only a bound is given, the exact number is not on record here.

The term ED50 denotes the dose at which the effect has come halfway, by size or by number of responders.

Turning to `OC(c1nc(-c2ccc(F)cc2)c(-c2ccc(F)cc2)[nH]1)C(F)(F)C(F)(F)F` (centres unmarked) [Example 23], the median effective dose (ED50) in assay [1] (Table 3, Formula I) came out at 24 mg/kg; in assay [2] (Table 3, Formula I), 6.8 mg/kg. For `COc1ccc(-c2nc(C(O)(C(F)(F)F)C(F)(F)F)[nH]c2-c2ccc(OC)cc2)cc1` [Example 2, 4,5-Bis(4-methoxyphenyl)-α,α-di(trifluoromethyl)-1H-imidazole-2-methanol], in that order: 2.7 mg/kg and 5 mg/kg. For `COc1ccc(-c2nc(C(OC)(C(F)(F)F)C(F)(F)F)[nH]c2-c2ccc(OC)cc2)cc1` [Example 7, 4,5-Bis(4-methoxyphenyl)-2-[1-methoxy-2,2,2-trifluoro-1-(trifluoromethyl)ethyl]-1H-imidazole], in that order: 32 mg/kg and 4.4 mg/kg. Regarding `COc1ccc(-c2nc(C(OC(C)=O)(C(F)(F)F)C(F)(F)F)n(C)c2-c2ccc(OC)cc2)cc1` [Example 5, 4,5-Bis(4-methoxyphenyl)-1-methyl-α,α-di(trifluoromethyl)-1H-imidazole-2-methanol, Acetate], the ED50 in assay [1] (Table 3, Formula I) is greater than 108 mg/kg. Also, the inhibition in vivo at 25 mg/kg in assay [2] (setting [3]) was 45%. In assay [1] (Table 3, Formula I), `CCC(C)(O)c1nc(-c2ccc(OC)cc2)c(-c2ccc(OC)cc2)[nH]1` (centres unmarked) [Example 34] came in with a 50% effective dose (ED50) of 5.2 mg/kg. Besides, the inhibition in vivo at 50 mg/kg in assay [2] (setting [4]) amounted to 82%. Consider `O=C(c1nc(-c2ccc(F)cc2)c(-c2ccc(F)cc2)[nH]1)C(F)(F)C(F)(F)F` [Example 39, 1-[4,5-bis(4-fluorophenyl)-1H-imidazol-2-yl]-2,2,3,3,3-pentafluoro-1-propanone], for which the median effective dose (ED50) in assay [2] (Table 4, Formula II) was determined as 3 mg/kg. `COc1ccc(-c2nc(C(C)(O)C3CC3)[nH]c2-c2ccc(OC)cc2)cc1` (centres unmarked) [Example 33]: the ED50 in assay [1] (Table 3, Formula I) was found to be 5.6 mg/kg. For the same compound, in assay [2] (setting [5]), the inhibition in vivo at 9 mg/kg worked out at 46%. For `COc1ccc(-c2nc(C(O)(C(F)(F)Cl)C(F)(F)Cl)[nH]c2-c2ccc(OC)cc2)cc1` [Example 13], the ED50 is 135 mg/kg in assay [1] (Table 3, Formula I) and 15 mg/kg in assay [2] (Table 3, Formula I). For `OC(c1nc(-c2ccc(F)cc2)c(-c2ccc(F)cc2)[nH]1)(C(F)F)C(F)(F)F` (stereo not drawn) [Example 16, 4,5-bis(4-fluorophenyl)-α-difluoromethyl-α-trifluoromethyl-1H-imidazole-2-methanol], in that order: greater than 108 mg/kg and 4.8 mg/kg. `COc1ccc(-c2nc(C(O)C(F)(F)F)n(C)c2-c2ccc(OC)cc2)cc1` (centres unmarked) [Example 19] registered an ED50 in assay [1] (Table 3, Formula I) greater than 108 mg/kg. In addition, the inhibition in vivo at 27 mg/kg in assay [2] (168 h, Table 3, dose 27 mg/kg, oral once daily 7 days, read-out: Adjuvant Arthritis, percent reduction in paw volume at the indicated dose) is 0%. With `CC(O)(c1nc(-c2ccc(F)cc2)c(-c2ccc(F)cc2)[nH]1)C(F)(F)C(F)(F)F` (stereo not drawn) [Example 11, 4,5-Bis(4-Fluorophenyl)-α-methyl-α-/pentafluoroethyl-1H-imidazole-2-methanol], the 50% effective dose (ED50) is greater than 108 mg/kg in assay [1] (Table 3, Formula I) and 1.4 mg/kg in assay [2] (Table 3, Formula I). On to `COc1ccc(-c2nc(C(=O)C(F)(F)F)[nH]c2-c2ccc(OC)cc2)cc1` [Example 9, 1-[4,5-Bis(4-methoxyphenyl)-1H-imidazol-2-yl]2,2,2-trifluoro-1-ethanone], for which the ED50 in assay [1] (Table 4, Formula II) was greater than 108 mg/kg; in assay [2] (Table 4, Formula II) it was 25 mg/kg.

As to `COc1ccc(-c2nc(C(C)O)[nH]c2-c2ccc(OC)cc2)cc1` (centres unmarked) [Example 35], the ED50 in assay [1] (Table 3, Formula I) worked out at 26 mg/kg; in assay [2] (Table 3, Formula I) it was 3.6 mg/kg.

Regarding `COc1ccc(-c2nc(C(O)(C(F)(F)F)C(F)(F)F)n(C)c2-c2ccc(OC)cc2)cc1` [Example 4, 4,5-Bis(4-methoxyphenyl)-1-methyl-α,α-(trifluoromethyl)-1H-imidazole-2-methanol], the 50% effective dose (ED50) in assay [1] (Table 3, Formula I) was greater than 135 mg/kg; in assay [2] (Table 3, Formula I), 15 mg/kg. The matching figures for `OC(c1nc(-c2ccc(F)cc2)c(-c2cccs2)[nH]1)(C(F)(F)F)C(F)(F)F` [Example 14]: greater than 108 mg/kg and 90 mg/kg. The matching figures for `COc1ccc(-c2nc(C(O)C(F)(F)F)[nH]c2-c2ccc(OC)cc2)cc1` (stereo not drawn) [Example 10, 4,5-Bis(4-methoxyphenyl)-α-(trifluoromethyl)-1H-imidazole-2-methanol]: 1.9 mg/kg and 45 mg/kg. In the case of `COc1ccc(-c2nc(C(=O)C(F)(F)F)n(C)c2-c2ccc(OC)cc2)cc1` [Example 36, 1-[4,5-bis(4-methoxyphenyl)-1-methyl-1H-imidazol-2-yl]-2,2,2-trifluoro-1-ethanone], the ED50 in assay [1] (Table 4, Formula II) is greater than 108 mg/kg. The inhibition in vivo at 25 mg/kg in assay [2] (setting [6]) came to 28%. On to `CC(=O)c1nc(-c2ccc(F)cc2)c(-c2ccc(F)cc2)[nH]1` [Example 41], for which, in assay [2] (setting [6]), the inhibition in vivo at 25 mg/kg is 0%. For `OC(c1nc(-c2ccccc2)c(-c2ccccc2)[nH]1)(C(F)(F)F)C(F)(F)F` [Example 20], the ED50 in assay [1] (Table 3, Formula I) was 57 mg/kg; in assay [2] (Table 3, Formula I), 27 mg/kg. As for `COc1ccc(-c2nc(C(=O)C(F)(F)C(F)(F)F)[nH]c2-c2ccc(OC)cc2)cc1` [Example 38, 1-[4,5-bis(4-methoxyphenyl)-1H-imidazol-2-yl]-2,2,3,3,3-pentafluoro-1-propanone], in assay [1] (Table 4, Formula II), it took a dose of 2.3 mg/kg to reach the 50% effect level (ED50). The inhibition in vivo at 25 mg/kg in assay [2] (setting [6]) is 62%. In assay [1] (Table 3, Formula I), `Cn1c(C(C)(C)O)nc(-c2ccc(F)cc2)c1-c1ccc(F)cc1` [Example 26] had an ED50 greater than 108 mg/kg. Also, the inhibition in vivo at 25 mg/kg in assay [2] (setting [3]) came to 47%. Regarding `CC(=O)OC(c1nc(-c2ccc(F)cc2)c(-c2ccc(F)cc2)[nH]1)(C(F)(F)F)C(F)(F)F` [Example 25], the ED50 in assay [1] (Table 3, Formula I) was greater than 108 mg/kg; in assay [2] (Table 3, Formula I), 13 mg/kg. Turning to `COc1ccc(-c2nc(C(C)(C)O)[nH]c2-c2ccc(OC)cc2)cc1` [Example 30, 4,5-bis(4-methoxyphenyl)-α,α-dimethyl-1H-imidazole-2-methanol], the ED50 in assay [1] (Table 3, Formula I) worked out at 4.6 mg/kg; in assay [2] (Table 3, Formula I) it was 6.4 mg/kg. `CC(C)(O)c1nc(-c2ccc(F)cc2)c(-c2ccc(F)cc2)[nH]1` [Example 28]: in assay [1] (Table 3, Formula I), the 50% effective dose (ED50) was greater than 108 mg/kg. Further, the inhibition in vivo at 50 mg/kg in assay [2] (setting [4]) was found to be 48%. As to `CCC(O)(c1nc(-c2ccc(F)cc2)c(-c2ccc(F)cc2)[nH]1)C(F)(F)F` (stereo not drawn) [Example 31, 4,5-bis(4-fluorophenyl)-α-ethyl-α-trifluoromethyl-1H-imidazole-2-methanol], the median effective dose (ED50) was greater than 108 mg/kg in assay [1] (Table 3, Formula I) and 1.7 mg/kg in assay [2] (Table 3, Formula I).

For the compound `CSc1ccc(-c2[nH]c(C(O)(C(F)(F)F)C(F)(F)F)nc2-c2ccc(F)cc2)cc1` [Example 21], the inhibition in vivo at 15 mg/kg in assay [2] (168 h, Table 3, dose 15 mg/kg, oral once daily 7 days, read-out: Adjuvant Arthritis, percent reduction in paw volume at the indicated dose) stood at 61%. `COc1ccc(-c2nc(C(O)(C(F)(F)F)C(F)(F)Cl)[nH]c2-c2ccc(OC)cc2)cc1` (centres unmarked) [Example 12]: the ED50 in assay [1] (Table 3, Formula I) is 42 mg/kg; in assay [2] (Table 3, Formula I), 6 mg/kg. The matching figures for `OC(c1nc(-c2ccc(F)cc2)c(-c2ccc(F)cc2)[nH]1)C(F)(F)F` (centres unmarked) [Example 27]: greater than 108 mg/kg and 14 mg/kg. The matching figures for `COc1ccc(-c2nc(C(C)(O)C(F)(F)F)[nH]c2-c2ccc(OC)cc2)cc1` (stereo not drawn) [Example 18, 4,5-bis(4-methoxyphenyl)-α-methyl-α-trifluoromethyl-1H-imidazole-2-methanol]: 2.2 mg/kg and 5.4 mg/kg. The matching figures for `CC(O)(c1nc(-c2ccc(F)cc2)c(-c2ccc(F)cc2)[nH]1)C(F)(F)F` (stereo not drawn) [Example 3, 4,5-Bis(4-fluorophenyl)-α-methyl-α-trifluoromethyl-1H-imidazole-2-methanol]: 39 mg/kg and 1.8 mg/kg. As to `OC(c1nc(-c2ccc(F)cc2)c(-c2ccc(F)cc2)[nH]1)(C(F)(F)F)C(F)(F)F` [Example 1, 4,5-Bis(4-fluorophenyl)-α,α-di(trifluoromethyl)-1H-imidazole-2-methanol], the median effective dose (ED50) was greater than 108 mg/kg in assay [1] (Table 3, Formula I) and 8 mg/kg in assay [2] (Table 3, Formula I). In the case of `OC(c1nc(-c2ccccc2)c(-c2ccc(Cl)c(Cl)c2)[nH]1)(C(F)(F)F)C(F)(F)F` [Example 17], in assay [2] (setting [4]), the inhibition in vivo at 50 mg/kg came out at 21%.

With `CSc1ccc(-c2[nH]c(C(C)(O)C(F)(F)F)nc2-c2ccc(F)cc2)cc1` (centres unmarked) [Example 24], the 50% effective dose (ED50) in assay [1] (Table 3, Formula I) was 102 mg/kg. In addition, the inhibition in vivo at 9 mg/kg in assay [2] (setting [5]) is 51%. For `O=C(c1nc(-c2ccc(F)cc2)c(-c2ccc(F)cc2)[nH]1)C(F)(F)F` [Example 8, 1-[4,5-Bis(4-fluorophenyl)-1H-imidazol-2-yl]-2,2,2-trifluoro-1-ethanone], in assay [1] (Table 4, Formula II), the ED50 is greater than 108 mg/kg. Also, the inhibition in vivo at 25 mg/kg in assay [2] (setting [6]) was found to be 49%. In assay [1] (Table 4, Formula II), `COc1ccc(-c2nc(C(C)=O)[nH]c2-c2ccc(OC)cc2)cc1` [Example 40] showed an ED50 greater than 135 mg/kg. Besides, in assay [2] (168 h, Table 4, dose 50 mg/kg, oral once daily 7 days, read-out: Adjuvant Arthritis, percent reduction in paw volume at the indicated dose), the inhibition in vivo at 50 mg/kg is 56%. On to `CCCC(O)(c1nc(-c2ccc(F)cc2)c(-c2ccc(F)cc2)[nH]1)C(F)(F)F` (centres unmarked) [Example 32], for which the 50% effective dose (ED50) in assay [1] (Table 3, Formula I) is greater than 108 mg/kg; in assay [2] (Table 3, Formula I) it was 8.6 mg/kg. In turn, `OC(c1nc(-c2ccc(Cl)cc2)c(-c2ccc(Cl)cc2)[nH]1)(C(F)(F)F)C(F)(F)F` [Example 22] returned an ED50 in assay [1] (Table 3, Formula I) greater than 135 mg/kg. Moreover, in assay [2] (setting [5]), the inhibition in vivo at 9 mg/kg stood at 37%. Compound `CSc1ccc(-c2[nH]c(C(=O)C(F)(F)F)nc2-c2ccc(F)cc2)cc1` [Example 37] registered an ED50 in assay [1] (Table 4, Formula II) greater than 108 mg/kg. Besides, the inhibition in vivo at 25 mg/kg in assay [2] (setting [6]) is 24%. `COc1ccc(-c2nc(C(C)(O)C(F)(F)C(F)(F)F)[nH]c2-c2ccc(OC)cc2)cc1` (stereo not drawn) [Example 29, 4,5-bis(4-methoxyphenyl)-α-methyl-α-pentafluoroethyl-1H-imidazole-2-methanol]: the ED50 in assay [1] (Table 3, Formula I) turned out to be 3.5 mg/kg; in assay [2] (Table 3, Formula I), 15 mg/kg.

The values are drawn from patent US4372964A, “Antiinflammatory 4,5-diaryl-1H-imidazole-2-methanols” (E. I. Du Pont de Nemours and Company, priority 1981, dated 1983).
